Measured values as given in BigSolDB 2.1.

CO[C@@]1(NC(=O)CSCC#N)C(=O)N2C(C(=O)[O-])=C(CSc3nnnn3C)CS[C@@H]21.[Na+]
solubility (mole fraction)
Details	in cyclohexane	in ethanol	in ethyl acetate	in isopropanol	in n-butanol	in n-butyl acetate	in n-hexane	in n-pentanol	in n-propanol
278.15 K	1.31e-06	0.000471	5.31e-05	6.74e-05	4.93e-05	3.86e-05	1.6e-06	3.1e-05	6.12e-05
283.15 K	1.75e-06	0.000508	6.03e-05	7.58e-05	5.69e-05	4.39e-05	2.1e-06	3.94e-05	7.02e-05
288.15 K	2.1e-06	0.000542	6.94e-05	8.93e-05	6.42e-05	5.19e-05	2.59e-06	4.82e-05	8.12e-05
293.15 K	2.5e-06	0.000599	8.61e-05	0.000117	8.26e-05	6.35e-05	2.98e-06	5.84e-05	0.000105
298.15 K	3.1e-06	0.000685	0.000105	0.00014	9.89e-05	7.49e-05	3.5e-06	6.75e-05	0.000125
303.15 K	3.6e-06	0.000818	0.000137	0.00017	0.000124	8.96e-05	4.1e-06	8e-05	0.000153
308.15 K	4.62e-06	0.00105	0.000168	0.00021	0.000152	0.000109	4.92e-06	9.75e-05	0.000191
313.15 K	5.69e-06	0.00128	0.000221	0.000286	0.000196	0.000124	6e-06	0.000113	0.000244
